Experimental data taken from patent US8937091B2 (Japan Science and Technology Agency, priority 2009, dated 2015).

Experiments:
[1] = tested on: SOCE (store operated calcium entry) in CHO cells; assay: Assay of SOCE (store operated calcium entry)-inhibiting action; assay type: cell-based, Chinese hamster; settings: CHO cells, thapsigargin; for inhibition at 30 µM / inhibition at 100 µM / inhibition at 10 µM: Cricetulus griseus, CHO, read-out: SOCE level (percentage of inhibition)
Outline: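 CHO cells in calcium-free BSS received compound, then 1 μM thapsigargin 2 min later to deplete stores; after 9 min, 2 mM calcium chloride (final) added. Percent inhibition of the rise in intracellular calcium determined at various compound concentrations.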

[2] = tested on: IICR (IP3 induced calcium release) in CHO cells; assay: Assay of IICR (IP3 induced calcium release)-inhibiting action; assay type: cell-based, Chinese hamster; settings: CHO cells, 10 μM ATP; for inhibition at 10 µM / inhibition at 30 µM / inhibition at 100 µM: Cricetulus griseus, CHO, read-out: IICR level (percentage of inhibition)
Outline: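 CHO cell medium replaced with calcium-containing BSS; compound added 1 min later, then 10 μM ATP after a further 2 min. Percent inhibition of the ATP-evoked rise in intracellular calcium determined at each compound concentration.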

Structure (SMILES) | inhibition at 30 µM ([1]; test compound 30 μmol) | inhibition at 100 µM ([1]; test compound 100 μmol) | inhibition at 10 µM ([2]; test compound 10 μmol) | inhibition at 30 µM ([2]; test compound 30 μmol) | inhibition at 100 µM ([2]; test compound 100 μmol) | inhibition at 10 µM ([1]; test compound 10 μmol) | SOCE level (percentage of inhibition) ([1]; test compound 10 μmol) | SOCE level (percentage of inhibition) ([1]; test compound 30 μmol) | SOCE level (percentage of inhibition) ([1]; test compound 100 μmol) | IICR level (percentage of inhibition) ([2]; test compound 10 μmol) | IICR level (percentage of inhibition) ([2]; test compound 30 μmol) | IICR level (percentage of inhibition) ([2]; test compound 100 μmol)
O=C(CCNCCO)c1ccco1 [Example 275, 2-(N-2-hydroxyethyl)aminoethyl-2-furylketone] | 0% | 0% | 30% | 30% | 30% | – | – | – | – | – | – | –
O=C(CCN(CCO)Cc1ccccc1)c1cc(Cl)sc1Cl [Example 204, 2-(N-2-hydroxyethylbenzyl)aminomethyl-3-(2,5-dichlorothiophenyl)ketone] | 0% | 50% | 0% | 40% | 70% | 0% | – | – | – | – | – | –
COC(=O)C(CSSCC(NCCC(=O)c1nccs1)C(=O)OC)NCCC(=O)c1nccs1 (stereo not shown) [Example 400] | 40% | 50% | 19% | 0% | 13% | 20% | – | – | – | – | – | –
CCN(CCC(=O)c1ccc(C)o1)Cc1ccccc1 [Example 239, 2-(N-benzylethyl)aminoethyl-5-methyl-2-furylketone] | 0% | 10% | 0% | 50% | 80% | 0% | – | – | – | – | – | –
CC(C)N(CCC(=O)c1ccc(Cl)s1)Cc1ccccc1 [Example 266, 2-(N-benzylisopropyl)aminoethyl-5-chloro-2-thiophenylketone] | 20% | 40% | 0% | 0% | 70% | 0% | – | – | – | – | – | –
CCCCN(CCO)CCC(=O)c1ccc(C)o1 [Example 255, 2-(N-2-hydroxyethylbutyl)aminoethyl-5-methyl-2-furylketone] | 0% | 0% | 0% | 30% | 50% | 0% | – | – | – | – | – | –
CCCCN(CCO)CCC(=O)c1ccccn1 [Example 250] | 0% | 0% | 0% | 10% | 20% | 0% | – | – | – | – | – | –
O=C(CCN1CCCCC1)c1ccccn1 [Example 95, 2-piperidinoethyl-2-pyridylketone] | 0% | 0% | 0% | 10% | 10% | 0% | – | – | – | – | – | –
O=C(CCNCCCCNCCC(=O)c1cnccn1)c1cnccn1 [Example 276, N,N-bis(2-pyrazoylethyl)tetramethylenediamine] | 0% | 0% | 0% | 0% | 20% | – | – | – | – | – | – | –
O=C(CCNCCc1ccccc1)c1ccsc1 [Example 223, 2-(N-phenethyl)aminoethyl-3-thiophenylketone] | 10% | 20% | 0% | 0% | 0% | 0% | – | – | – | – | – | –
O=C(CCN(CCO)c1ccccc1)c1ccco1 [Example 132, 2-(N-phenylhydroxyethyl)aminoethyl-2-furylketone] | 0% | 0% | 10% | 20% | 20% | 0% | – | – | – | – | – | –
Cc1csc(C(=O)CCN(C)Cc2ccccc2)n1 [Example 265, 2-(N-benzylmethyl)aminoethyl-4-methyl-2-thiazolylketone] | 10% | 10% | 0% | 0% | 70% | 10% | – | – | – | – | – | –
CC(C)(C)N(CCO)CCC(=O)c1ccc(Br)s1 [Example 332, 2-(N-hydroxyethyl-t-butyl)aminoethyl-5-bromo-2-thienylketone] | – | – | – | – | – | – | 0% | 10% | 20% | 0% | 10% | 50%
CCC(=O)C(CCC(=O)c1ccc2ccccc2c1)C(=O)OC (stereo not shown) [Example 98, 3-propionyl-3-methoxycarbonylpropyl-2-naphthylketone] | 10% | 60% | 0% | 0% | 0% | 0% | – | – | – | – | – | –
